Converted amounts (≈) assume the structure as drawn.
Tested on: Mannheimia haemolytica
Experiment: minimum inhibitory concentration (MIC)
Protocol: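 Broth microdilution MIC (Sensititre BOPO7F bovine plate, CLSI methods) of 19 antimicrobials against field isolates of P. multocida, M. haemolytica, H. somni (deep nasopharyngeal swabs) and E. coli, Enterococcus spp. (rectal swabs) from weaned dairy heifers. Incubation 16-24 h at 35 C. MIC is the lowest concentration preventing visible growth. Values with <= or > lie at the tested range limits. Trimethoprim-sulfamethoxazole is given as the trimethoprim component of a 1:19 mixture.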

CCCN1C[C@H](C)[C@@H](O)[C@](C)(O)[C@@H](CC)OC(=O)[C@H](C)[C@@H](O[C@H]2C[C@@](C)(OC)[C@@H](O)[C@H](C)O2)[C@H](C)[C@@H](O[C@@H]2O[C@H](C)C[C@H](N(C)C)[C@H]2O)[C@](C)(O)C[C@H]1C [Gamithromycin]
Details | minimum inhibitory concentration [µg/mL]
isolate (source animal id): 56 | ≤ 1
isolate (source animal id): 57 | > 8
isolate (source animal id): 100 | 2 (≈ 2.57 µM)
isolate (source animal id): 103 | 4 (≈ 5.15 µM)
isolate (source animal id): 107 | 2 (≈ 2.57 µM)
isolate (source animal id): 108 | 2 (≈ 2.57 µM)
isolate (source animal id): 112 | > 8
isolate (source animal id): 113 | > 8
isolate (source animal id): 121 | 4 (≈ 5.15 µM)
isolate (source animal id): 122 | 8 (≈ 10.3 µM)
isolate (source animal id): 123 | > 8
isolate (source animal id): 126 | > 8
isolate (source animal id): 133 | > 8
isolate (source animal id): 135 | > 8
isolate (source animal id): 138 | > 8
isolate (source animal id): 141 | > 8
isolate (source animal id): 142 | > 8
isolate (source animal id): 145 | 2 (≈ 2.57 µM)
isolate (source animal id): 149 | 2 (≈ 2.57 µM)
isolate (source animal id): 151 | 2 (≈ 2.57 µM)
isolate (source animal id): 152 | 4 (≈ 5.15 µM)
isolate (source animal id): 154 | ≤ 1
isolate (source animal id): 159 | > 8
isolate (source animal id): 162 | > 8
isolate (source animal id): 170 | 2 (≈ 2.57 µM)
isolate (source animal id): 171 | ≤ 1
isolate (source animal id): 172 | 2 (≈ 2.57 µM)
isolate (source animal id): 173 | 2 (≈ 2.57 µM)
isolate (source animal id): 179 | ≤ 1
isolate (source animal id): 180 | ≤ 1
isolate (source animal id): 183 | ≤ 1
isolate (source animal id): 186 | ≤ 1
isolate (source animal id): 187 | 2 (≈ 2.57 µM)
isolate (source animal id): 188 | ≤ 1
isolate (source animal id): 190 | ≤ 1
isolate (source animal id): 191 | 2 (≈ 2.57 µM)
isolate (source animal id): 192 | ≤ 1
isolate (source animal id): 201 | 2 (≈ 2.57 µM)
isolate (source animal id): 202 | 2 (≈ 2.57 µM)
isolate (source animal id): 209 | 2 (≈ 2.57 µM)
isolate (source animal id): 211 | 2 (≈ 2.57 µM)
isolate (source animal id): 220 | 2 (≈ 2.57 µM)
isolate (source animal id): 221 | ≤ 1
isolate (source animal id): 223 | 2 (≈ 2.57 µM)
isolate (source animal id): 233 | 2 (≈ 2.57 µM)
isolate (source animal id): 237 | 4 (≈ 5.15 µM)
isolate (source animal id): 241 | 4 (≈ 5.15 µM)
isolate (source animal id): 252 | 8 (≈ 10.3 µM)
isolate (source animal id): 253 | 8 (≈ 10.3 µM)
isolate (source animal id): 259 | > 8
isolate (source animal id): 260 | 8 (≈ 10.3 µM)
isolate (source animal id): 262 | 4 (≈ 5.15 µM)
isolate (source animal id): 282 | > 8
isolate (source animal id): 287 | 8 (≈ 10.3 µM)
isolate (source animal id): 288 | ≤ 1
isolate (source animal id): 291 | ≤ 1
isolate (source animal id): 293 | 8 (≈ 10.3 µM)
isolate (source animal id): 298 | > 8
isolate (source animal id): 299 | > 8
isolate (source animal id): 300 | ≤ 1
isolate (source animal id): 302 | > 8
isolate (source animal id): 304 | > 8
isolate (source animal id): 306 | ≤ 1
isolate (source animal id): 308 | ≤ 1
isolate (source animal id): 309 | ≤ 1
isolate (source animal id): 313 | > 8
isolate (source animal id): 318 | 8 (≈ 10.3 µM)
isolate (source animal id): 320 | ≤ 1
isolate (source animal id): 321 | > 8
isolate (source animal id): 323 | > 8
isolate (source animal id): 324 | 8 (≈ 10.3 µM)
isolate (source animal id): 326 | > 8
isolate (source animal id): 328 | > 8
isolate (source animal id): 329 | > 8
isolate (source animal id): 333 | > 8
isolate (source animal id): 335 | 8 (≈ 10.3 µM)
isolate (source animal id): 338 | 8 (≈ 10.3 µM)

— the supplement of paper PMC8612539
